Results on 11 compounds are retold here after ChEMBL document CHEMBL1201862, “PubChem BioAssay data set” (2004).

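Grown in 96-well plates, cells were treated for 48 hours with each compound at five concentrations. Insufficient inhibition: endpoint recorded as highest concentration tested. GI50 marks 50% less growth.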 Activity calls are given as the source filed them. Cut-off read from the data, not from the text of the source: active = GI50 up to about 1.1 µM and inactive = higher.

Experiment in all cases: DTP human tumour cell line panel, 48 h
For assay [1], the system named is 786-0.
Assay [2] relates to A498.
In assay [3] the test system is ACHN.
In assay [4] the test system is COLO 205.
Assay [5] relates to EKVX.
Assay [6] concerns HL-60.
Assay [7] has as its system HT-29.
The test system of assay [8] is KM12.
Assay [9] relates to MDA-MB-231.
The test system of assay [10] is MDA-MB-435.
Assay [11] has as its system MDA-N.
In assay [12] the test system is OVCAR-5.
Assay [13] has as its system RPMI-8226.
In assay [14] the test system is SF-268.
The test system of assay [15] is SF-539.
The subject of assay [16] is SK-MEL-28.
For assay [17], the system named is SK-MEL-5.
Assay [18] relates to SR.
The test system of assay [19] is UACC-257.

As usually defined, the GI50 is the concentration at which growth is held to half of that of the control.

Take `CC(=O)OCC1=CC2OC(=O)C3=COC(OC4OC(CO)C(O)C(O)C4O)C1C32` (stereo not drawn): the GI50 in assay [1], in assay [2], in assay [3], in assay [4], in [5] and in assay [6] was > 100 µM (inactive) in each case. Further, the GI50 in assay [7], in [8], in assay [9], in assay [10], in [11] and in [12] was > 100 µM (inactive) throughout. For the same compound, the GI50 in assay [13] is > 100 µM (inactive); in [14] it was > 100 µM (inactive); in [15], > 100 µM (inactive); in [16] it was > 100 µM (inactive); in assay [17], > 100 µM (inactive); in assay [18], 57 µM (inactive). Further, the GI50 in assay [19] was > 100 µM (inactive).
For the compound `S=C(N/N=C/c1ccccn1)N1CCCCC1`, the GI50 in assay [1] is < 0.0137 µM (active); in [2], < 0.0461 µM (active); in assay [3], < 0.01 µM (active); in assay [4], < 0.01 µM (active); in [5], 0.07 µM (active); in assay [6], < 0.01 µM (active). For the same compound, the 50% growth inhibitory concentration (GI50) in assay [7] was < 0.01 µM (active); in [8] it was < 0.0262 µM (active); in assay [9] it was < 0.01 µM (active); in [10], 0.163 µM (active); in assay [11], 0.271 µM (active); in assay [13], < 0.01 µM (active). For the same compound, the GI50 is < 0.0178 µM (active) in assay [14]; 0.135 µM (active) in [15]; 0.297 µM (active) in assay [16]; < 0.0198 µM (active) in assay [17]; < 0.01 µM (active) in [18]; < 0.01 µM (active) in assay [19].
With `CCCCCCCCCCCCCCCCOC[C@H](COC(c1ccccc1)(c1ccccc1)c1ccccc1)O[PH](=S)OC` (stereo partly drawn), the GI50 in [1], in [2], in assay [3], in [4], in assay [5] and in [6] was > 100 µM (inactive) each time. Besides, the GI50 in [7], in assay [8], in assay [9], in assay [10], in [11] and in [12] was > 100 µM (inactive) throughout. Moreover, the GI50 in assay [13], in [14], in assay [15], in [17], in [18] and in [19] was > 100 µM (inactive) throughout.
For `Cc1ccc(S(=O)(=O)NNC(=O)c2cc(C)c(C)cc2N)cc1`, the GI50 in assay [1], in assay [2], in assay [3], in assay [4], in assay [5] and in assay [6] was > 100 µM (inactive) throughout. For the same compound, the GI50 in [7], in assay [8], in assay [9], in [10], in assay [11] and in assay [12] was > 100 µM (inactive) each time. Also, the GI50 in assay [13], in assay [15], in assay [16], in assay [17], in assay [18] and in assay [19] was > 100 µM (inactive) in each case.
For `CC1=NN(c2ccccc2)C(=O)/C1=C/c1ccc(O)cc1`, the GI50 in assay [1], in assay [2], in assay [3], in assay [4], in [5] and in assay [6] was > 100 µM (inactive) in each case. Also, the GI50 in [7], in [8], in assay [9], in [10], in assay [11] and in assay [12] was > 100 µM (inactive) each time. Further, the GI50 was 61.8 µM (inactive) in [13]; > 100 µM (inactive) in assay [14]; > 100 µM (inactive) in assay [15]; > 100 µM (inactive) in assay [16]; > 100 µM (inactive) in assay [17]; 84.3 µM (inactive) in [18]. In addition, the GI50 in [19] was > 100 µM (inactive).
Regarding `C/C(=N\Nc1nc2ccccc2n1C)c1cnccn1`, the 50% growth inhibitory concentration (GI50) in assay [1] was 0.0671 µM (active); in assay [2], 0.684 µM (active); in assay [3], 0.065 µM (active); in assay [4] it was < 0.0139 µM (active); in [5] it was 0.0424 µM (active); in assay [6], 0.0178 µM (active). Moreover, the concentration for 50% growth inhibition (GI50) in [7] is 0.0418 µM (active); in assay [8], 0.824 µM (active); in [9] it was 0.044 µM (active); in assay [10] it was 0.55 µM (active); in [11], 0.753 µM (active); in assay [13], < 0.0297 µM (active). The GI50 in [14] was 0.0726 µM (active); in assay [15], 0.692 µM (active); in assay [16], 0.565 µM (active); in assay [17], 0.154 µM (active); in assay [18], 0.0649 µM (active); in assay [19], 0.0483 µM (active).
On to `CS/C(N)=N/c1cccc2ccccc12`, for which the GI50 in assay [1], in assay [2], in assay [3], in [4], in [5] and in [6] was > 10 µM (inactive) in each case. Moreover, the GI50 in assay [7], in assay [8], in assay [9], in [10], in [11] and in [13] was > 10 µM (inactive) each time. Further, the GI50 in [14], in [15], in [16], in assay [17], in [18] and in [19] was > 10 µM (inactive) each time.
Consider `N#C/C(=C\n1ccc(=O)[nH]c1=S)C(N)=O`, for which the GI50 in [1], in assay [2], in [3], in assay [4], in [5] and in assay [6] was > 100 µM (inactive) each time. Also, the GI50 in assay [7], in [8], in assay [9], in assay [10], in assay [11] and in assay [12] was > 100 µM (inactive) throughout. The GI50 in assay [13], in assay [14], in [15], in assay [16], in assay [17] and in assay [18] was > 100 µM (inactive) each time. The GI50 in assay [19] is > 100 µM (inactive).
For the compound `CC(=O)O[C@H]1C(=O)[C@@]2(C)[C@H]([C@H](OC(=O)c3ccncc3)[C@]3(O)C[C@H](OC(=O)[C@H](O)[C@@H](NC(=O)c4ccccc4)c4ccccc4)C(C)=C1C3(C)C)[C@]1(OC(C)=O)CO[C@@H]1C[C@@H]2O`, the GI50 in assay [1] is 6.81 µM (inactive); in assay [2], > 15.5 µM (inactive); in assay [3], > 22.3 µM (inactive); in assay [4] it was 2.08 µM (inactive); in [5], > 25 µM (inactive); in assay [6], 0.471 µM (active). The GI50 was 1.42 µM (inactive) in assay [7]; 2.61 µM (inactive) in [8]; > 20 µM (inactive) in assay [9]; 0.714 µM (active) in assay [10]; 0.877 µM (active) in [11]; 10 µM (inactive) in assay [12]. The GI50 in [13] was 0.881 µM (active); in [14], > 11.6 µM (inactive); in assay [15], 0.875 µM (active); in [16] it was > 11.6 µM (inactive); in assay [17] it was 2.3 µM (inactive); in assay [18], 1.09 µM (active). In assay [19], the GI50 is 8.3 µM (inactive).
As to `CCCCc1ccc(Nc2nc(Cl)c3ncn(COCCOC(C)=O)c3n2)cc1`, the GI50 in assay [1] was 16 µM (inactive); in assay [2] it was 25.5 µM (inactive); in assay [3], 17.5 µM (inactive); in assay [4] it was 23.5 µM (inactive); in assay [5], 6.19 µM (inactive); in assay [6], 20.9 µM (inactive). Further, the GI50 in [7] is 17.3 µM (inactive); in [8], 20.4 µM (inactive); in assay [9], 15.3 µM (inactive); in [10], 18.5 µM (inactive); in assay [11], 18.8 µM (inactive); in assay [12], 17.9 µM (inactive). For the same compound, the GI50 is 18.2 µM (inactive) in assay [13]; 19.4 µM (inactive) in assay [14]; 19.5 µM (inactive) in assay [15]; 16.7 µM (inactive) in assay [17]; 21.2 µM (inactive) in [18]; 19.8 µM (inactive) in assay [19].
On to `N#Cc1nc(C2CCC2)oc1N`, for which the GI50 in [1] was > 100 µM (inactive); in assay [2], > 100 µM (inactive); in assay [3], > 100 µM (inactive); in [4] it was > 100 µM (inactive); in assay [5] it was > 100 µM (inactive); in assay [6], 84.9 µM (inactive). Further, the GI50 in [7], in assay [8], in [9], in assay [10], in [11] and in assay [12] was > 100 µM (inactive) each time. In addition, the GI50 in assay [13], in assay [14], in assay [15], in [16], in assay [17] and in [18] was > 100 µM (inactive) throughout. For the same compound, the GI50 in assay [19] was > 100 µM (inactive).
